Reference: the NIST ThermoML archive (doi:10.1021/je300678r)
“And” between values parts separate entries of the source, which are not always exact repeats. Equal values may be shown once. Numbers after ± are expanded uncertainties.

How the values were obtained:
[1] = Liquid; for mass density: 101.33 kPa, Vibrating tube method; for vapor or sublimation pressure: Ebulliometric method (Recirculating still)
[2] = refractive index (Na D-line) (dimensionless); conditions: 101.33 kPa, Liquid, Standard Abbe refractometry
[3] = xn = mol fraction of the nth substance listed; conditions: 298.15 K, 101 kPa, Liquid, Vibrating tube method
[4] = refractive index (Na D-line) (dimensionless); xn = mol fraction of the nth substance listed; conditions: 298.15 K, 101 kPa, Liquid, Standard Abbe refractometry
[5] = excess molar enthalpy (molar enthalpy of mixing); xn = mol fraction of the nth substance listed; conditions: 298.15 K, 101 kPa, Liquid, Flow calorimetry

CCCCC(CC)CO (centres undefined) [2-ethyl-1-hexanol]
Conditions | mass density [kg/m3] | refractive index | vapor or sublimation pressure [kPa]
[1], 297.86 K | 828.8 ± 0.3 | – | –
[1], 389.76 K | – | – | 9.88 ± 0.24
[1], 407.11 K | – | – | 19.88 ± 0.29
[1], 418.24 K | – | – | 30.03 ± 0.41
[1], 426.95 K | – | – | 39.67 ± 0.25
[1], 430.79 K | – | – | 45.05 ± 0.3
[1], 433.51 K | – | – | 49.22 ± 0.34
[1], 437.24 K | – | – | 55.52 ± 0.19
[1], 439.49 K | – | – | 59.61 ± 0.21
[1], 442.12 K | – | – | 64.64 ± 0.22
[1], 445 K | – | – | 70.55 ± 0.23
[1], 447.04 K | – | – | 75.01 ± 0.24
[1], 449.02 K | – | – | 79.55 ± 0.25
[1], 451.06 K | – | – | 84.49 ± 0.27
[1], 456.77 K | – | – | 99.44 ± 0.28
[1], 457.83 K | – | – | 102.2 ± 0.26
[1], 458.23 K | – | – | 102.91 ± 0.2
[1], 458.24 K | – | – | 103.26 ± 0.27
[2], 297.86 K | – | 1.4295 ± 0.0003 | –
[2], 298.15 K | – | 1.42949 ± 0.00032 | –

CCCCC(CC)CO (centres undefined) [2-ethyl-1-hexanol] + CC(=O)CC(C)C
Conditions | excess molar enthalpy, [5] | mass density, [3] | refractive index, [4]
x2 = 0 | – | – | 1.42949 ± 0.00032
x2 = 0.0516 | – | – | 1.42806 ± 0.00032
x2 = 0.1009 | 0.132 ± 0.00382 kcal/mol | 826.11 ± 0.34 kg/m3 | –
x2 = 0.1017 | – | – | 1.4266 ± 0.00032
x2 = 0.2001 | 0.236 ± 0.00669 kcal/mol | 823.29 ± 0.35 kg/m3 | –
x2 = 0.2045 | – | – | 1.42351 ± 0.00032
x2 = 0.3019 | 0.313 ± 0.0086 kcal/mol | 820.27 ± 0.35 kg/m3 | –
x2 = 0.397 | – | – | 1.41723 ± 0.00032
x2 = 0.4014 | 0.361 ± 0.0098 kcal/mol | 817.23 ± 0.36 kg/m3 | –
x2 = 0.5009 | 0.38 ± 0.0103 kcal/mol | 813.99 ± 0.37 kg/m3 | –
x2 = 0.6018 | 0.371 ± 0.01 kcal/mol | 810.67 ± 0.37 kg/m3 | –
x2 = 0.605 | – | – | 1.41 ± 0.00033
x2 = 0.7019 | 0.329 ± 0.00908 kcal/mol | 807.13 ± 0.37 kg/m3 | –
x2 = 0.7986 | – | – | 1.40249 ± 0.00033
x2 = 0.8009 | 0.258 kcal/mol and 0.257 kcal/mol | 803.8 ± 0.37 kg/m3 and 803.62 ± 0.37 kg/m3 | –
x2 = 0.9004 | 0.149 ± 0.00454 kcal/mol | 800.06 ± 0.35 kg/m3 | –
x2 = 0.9051 | – | – | 1.39848 ± 0.00033
x2 = 0.9491 | – | – | 1.39587 ± 0.00033

CCC(C)(C)O [2-methylbutan-2-ol]
Conditions | mass density [kg/m3] | refractive index | vapor or sublimation pressure [kPa]
[1], 297.85 K | 805.3 ± 0.4 | – | –
[1], 336.04 K | – | – | 19.84 ± 0.25
[1], 344.75 K | – | – | 29.94 ± 0.28
[1], 351.29 K | – | – | 39.96 ± 0.35
[1], 356.6 K | – | – | 49.95 ± 0.42
[1], 361.18 K | – | – | 60.05 ± 0.48
[1], 365.4 K | – | – | 70.74 ± 0.53
[1], 368.07 K | – | – | 78.27 ± 0.54
[1], 368.16 K | – | – | 78.09 ± 0.37
[1], 368.75 K | – | – | 80.2 ± 0.38
[1], 371.97 K | – | – | 90.23 ± 0.34
[1], 375.14 K | – | – | 100.74 ± 0.49
[1], 375.38 K | – | – | 101.88 ± 0.5
[1], 375.53 K | – | – | 102.61 ± 0.5
[2], 297.85 K | – | 1.4025 ± 0.0004 | –
[2], 298.15 K | – | 1.40253 ± 0.00037 | –

CCC(C)(C)O [2-methylbutan-2-ol] + CC(=O)CC(C)C
Conditions | excess molar enthalpy, [5] [kcal/mol] | mass density, [3] | refractive index, [4]
x2 = 0 | – | – | 1.40253 ± 0.00037
x2 = 0.0598 | – | – | 1.40217 ± 0.00037
x2 = 0.1012 | 0.106 ± 0.00311 | 804.47 ± 0.38 kg/m3 | –
x2 = 0.1216 | – | – | 1.40156 ± 0.00036
x2 = 0.2017 | 0.196 ± 0.0055 | 803 ± 0.38 kg/m3 | –
x2 = 0.2171 | – | – | 1.40043 ± 0.00036
x2 = 0.3013 | 0.263 ± 0.00717 | 801.45 ± 0.37 kg/m3 | –
x2 = 0.4017 | 0.307 | 800.01 ± 0.37 kg/m3 and 800 ± 0.37 kg/m3 | –
x2 = 0.4095 | – | – | 1.39811 ± 0.00035
x2 = 0.5008 | 0.327 ± 0.00884 | 798.73 ± 0.36 kg/m3 | –
x2 = 0.5982 | – | – | 1.39615 ± 0.00034
x2 = 0.6006 | 0.321 ± 0.0086 | 797.67 ± 0.36 kg/m3 | –
x2 = 0.7009 | 0.288 ± 0.00789 | 796.87 ± 0.36 kg/m3 | –
x2 = 0.8017 | 0.227 ± 0.00621 | 796.33 ± 0.35 kg/m3 | –
x2 = 0.8202 | – | – | 1.39439 ± 0.00033
x2 = 0.9007 | 0.132 ± 0.00359 | 796.12 ± 0.35 kg/m3 | –
x2 = 0.9177 | – | – | 1.39383 ± 0.00033
x2 = 0.9563 | – | – | 1.39364 ± 0.00033

CC(=O)CC(C)C [4-methylpentan-2-one]
Conditions | mass density [kg/m3] | refractive index | vapor or sublimation pressure [kPa]
[1], 297.84 K | 796.4 ± 0.4 | – | –
[1], 340.18 K | – | – | 19.35 ± 0.2
[1], 340.66 K | – | – | 19.78 ± 0.2
[1], 343.42 K | – | – | 21.92 ± 0.21
[1], 351.55 K | – | – | 30.01 ± 0.21
[1], 352.71 K | – | – | 31.12 ± 0.23
[1], 353.11 K | – | – | 31.71 ± 0.31
[1], 359.22 K | – | – | 39.35 ± 0.18
[1], 359.39 K | – | – | 39.63 ± 0.21
[1], 359.58 K | – | – | 40.05 ± 0.24
[1], 362.88 K | – | – | 44.7 ± 0.17
[1], 365.9 K | – | – | 49.68 ± 0.16
[1], 366.61 K | – | – | 50.66 ± 0.18
[1], 368.06 K | – | – | 53.01 ± 0.27
[1], 368.07 K | – | – | 53.42 ± 0.24
[1], 368.14 K | – | – | 53.26 ± 0.32
[1], 368.15 K | – | – | 53.24 ± 0.27
[1], 368.7 K | – | – | 54.29 ± 0.21
[1], 371.34 K | – | – | 59.43 ± 0.14
[1], 371.64 K | – | – | 59.75 ± 0.16
[1], 371.91 K | – | – | 60.19 ± 0.18
[1], 374.37 K | – | – | 65.18 ± 0.22
[1], 376.26 K | – | – | 69.16 ± 0.37
[1], 376.49 K | – | – | 69.98 ± 0.37
[1], 378.8 K | – | – | 74.83 ± 0.25
[1], 380.65 K | – | – | 79.56 ± 0.17
[1], 381.06 K | – | – | 80.16 ± 0.25
[1], 382.66 K | – | – | 84.16 ± 0.28
[1], 384.99 K | – | – | 90.58 ± 0.29
[1], 388.07 K | – | – | 98.7 ± 0.66
[1], 388.31 K | – | – | 99.4 ± 0.31
[1], 388.63 K | – | – | 100.35 ± 0.34
[1], 388.65 K | – | – | 100.41 ± 0.34
[1], 389.06 K | – | – | 101.85 ± 0.3
[1], 389.49 K | – | – | 102.78 ± 0.24
[2], 297.84 K | – | 1.3935 ± 0.0003 | –
[2], 298.15 K | – | 1.39346 ± 0.00033 and 1.39352 ± 0.00033 | –

CC(=O)CC(C)C [4-methylpentan-2-one] + CCC(C)(C)O
Conditions | refractive index
[4], x1 = 1 | 1.39352 ± 0.00033

CC(=O)CC(C)C [4-methylpentan-2-one] + CCC(C)O
Conditions | excess molar enthalpy, [5] | mass density, [3] | refractive index, [4]
x1 = 0.0502 | – | – | 1.39473 ± 0.00033
x1 = 0.1005 | – | – | 1.39443 ± 0.00033
x1 = 0.1009 | 0.161 ± 0.00454 kcal/mol | 800.64 ± 0.35 kg/m3 | –
x1 = 0.2005 | – | – | 1.39392 ± 0.00033
x1 = 0.2009 | 0.272 ± 0.00741 kcal/mol | 799.14 ± 0.35 kg/m3 | –
x1 = 0.3007 | 0.344 ± 0.00932 kcal/mol | 798.02 ± 0.35 kg/m3 | –
x1 = 0.3998 | – | – | 1.39335 ± 0.00033
x1 = 0.4015 | 0.384 kcal/mol and 0.385 kcal/mol | 797.16 ± 0.35 kg/m3 and 797.13 ± 0.35 kg/m3 | –
x1 = 0.5008 | 0.396 ± 0.0108 kcal/mol | 796.55 ± 0.35 kg/m3 | –
x1 = 0.602 | – | – | 1.39309 ± 0.00033
x1 = 0.6021 | 0.38 ± 0.0103 kcal/mol | 796.12 ± 0.35 kg/m3 | –
x1 = 0.7004 | 0.336 ± 0.00908 kcal/mol | 795.9 ± 0.35 kg/m3 | –
x1 = 0.7988 | – | – | 1.39313 ± 0.00033
x1 = 0.7998 | 0.262 ± 0.00717 kcal/mol | 795.84 ± 0.35 kg/m3 | –
x1 = 0.8985 | – | – | 1.39325 ± 0.00033
x1 = 0.8998 | 0.155 ± 0.0043 kcal/mol | 795.97 ± 0.35 kg/m3 | –
x1 = 0.9508 | – | – | 1.39335 ± 0.00033
x1 = 1 | – | – | 1.39346 ± 0.00033

CC(=O)CC(C)C [4-methylpentan-2-one] + CCCCC(CC)CO
Conditions | refractive index
[4], x1 = 1 | 1.39346 ± 0.00033

CCC(C)O (centres undefined) [butan-2-ol]
Conditions | mass density, 297.83 K [kg/m3] | refractive index, 297.83 K | refractive index, 298.15 K | vapor or sublimation pressure, 358.16 K [kPa] | vapor or sublimation pressure, 367.97 K | vapor or sublimation pressure, 372.43 K [kPa] | vapor or sublimation pressure, 372.71 K [kPa]
[1] | 802.7 ± 0.4 | – | – | 57.27 ± 0.29 | 84.94 ± 0.31 kPa and 85.16 ± 0.75 kPa | 100.62 ± 0.46 | 101.88 ± 0.46
[2] | – | 1.3951 ± 0.0003 | 1.39512 ± 0.00033 | – | – | – | –

CCC(C)O (centres undefined) [butan-2-ol] + CC(=O)CC(C)C
Conditions | refractive index
[4], x2 = 0 | 1.39512 ± 0.00033
